Results on three compounds are retold here after article PMC8232895 (Drug Design, Development and Therapy, 2021).

Test [1] can be described thus: DPPH free radical scavenging assay. To be noted: for DPPH radical % Inhibition (Mean±SEM): n 3; for IC50: read-out: DPPH scavenging IC50.
The nature of test [2]: ABTS free radical scavenging assay. To be noted: for ABTS radical % Inhibition (Mean±SEM): n 3; for IC50: read-out: ABTS scavenging IC50.
The target of test [3] is T1, butyrylcholinesterase (BChE) (Equus caballus, UniProt P81908). The test can be described thus: biochemical. To be noted: read-out: BChE % Inhibition (Mean±SEM).
Test [4] addresses T1, butyrylcholinesterase (BChE). To be noted: n 3.

Like-named read-outs stand apart in the source and are kept apart here. A value given as a limit tells only on which side of the number the result lay.

T1 sequence (P81908 whole entry): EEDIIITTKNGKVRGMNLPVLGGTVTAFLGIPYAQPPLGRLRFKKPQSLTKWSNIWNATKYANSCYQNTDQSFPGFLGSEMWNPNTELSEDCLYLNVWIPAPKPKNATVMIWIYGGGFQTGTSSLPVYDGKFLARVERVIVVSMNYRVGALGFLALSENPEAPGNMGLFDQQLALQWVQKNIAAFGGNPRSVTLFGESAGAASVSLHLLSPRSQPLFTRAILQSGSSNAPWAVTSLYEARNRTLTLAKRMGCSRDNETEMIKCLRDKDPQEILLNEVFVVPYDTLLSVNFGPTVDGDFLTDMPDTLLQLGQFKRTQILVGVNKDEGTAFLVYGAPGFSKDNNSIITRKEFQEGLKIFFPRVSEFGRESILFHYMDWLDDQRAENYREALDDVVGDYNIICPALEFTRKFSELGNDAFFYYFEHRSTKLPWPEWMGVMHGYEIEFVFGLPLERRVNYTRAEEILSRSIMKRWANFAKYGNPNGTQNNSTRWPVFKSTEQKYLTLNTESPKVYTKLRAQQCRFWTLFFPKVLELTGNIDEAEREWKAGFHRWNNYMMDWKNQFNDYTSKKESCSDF

`O=C1O[C@H]([C@@H](O)CO)C(O)=C1O` [Ascorbic Acid, reference compound]: the “DPPH scavenging IC50” value in test [1] is on record as less than 0.1 µg/mL. In addition, the “DPPH radical % Inhibition (Mean±SEM)” value is 77.28±0.79% in test [1] (15.62 µg/mL); 82.74±0.23% in test [1] (31.25 µg/mL); 84.44±0.15% in test [1] (62.5 µg/mL); 87.25±0.48% in test [1] (125 µg/mL); 91.54±0.37% in test [1] (250 µg/mL); 93.65±0.54% in test [1] (500 µg/mL). In addition, the “DPPH radical % Inhibition (Mean±SEM)” value in test [1] (1000 µg/mL) turned out to be 95.63±0.12%. Moreover, the IC50 was found to be 0.173 µM in test [1] and 0.129 µM in test [2]. The “ABTS scavenging IC50” value in test [2] is less than 0.1 µg/mL. For the same compound, the “ABTS radical % Inhibition (Mean±SEM)” value in test [2] (15.62 µg/mL) stood at 77.65±0.32%; in test [2] (31.25 µg/mL) it was 79.29±0.91%; in test [2] (62.5 µg/mL) it was 81.75±0.85%; in test [2] (125 µg/mL), 84.68±0.56%; in test [2] (250 µg/mL), 85.34±0.47%; in test [2] (500 µg/mL) it was 88.25±0.87%. In addition, the “ABTS radical % Inhibition (Mean±SEM)” value in test [2] (1,000 µg/mL) is recorded as 92.36±0.65%.
As for `COc1ccc2c3c1O[C@H]1C[C@@H](O)C=C[C@@]31CCN(C)C2` [Galantamine], the inhibition at 15.62 µg/mL in test [3] worked out at 82.76 ± 0.44%.
As for “({3-[(4-Methoxy-2-Nitrophenyl) Carbamoyl] Propanoyl} Zincio 3-[(2-Methoxy-5-Nitrophenyl) Carbamoyl] Propanoate Pyridine [AAZ8]”, the “DPPH radical % Inhibition (Mean±SEM)” value worked out at 69.87±0.59% in test [1] (15.62 µg/mL); 73.47±0.26 % in test [1] (31.25 µg/mL); 75.68±0.97% in test [1] (62.5 µg/mL); 77.85±0.39 % in test [1] (125 µg/mL); 79.54±0.63 % in test [1] (250 µg/mL); 81.69±0.45 % in test [1] (500 µg/mL). Also, in test [1] (1000 µg/mL), the “DPPH radical % Inhibition (Mean±SEM)” value is 83.97±0.12%. For the same compound, the values for the half-inhibitory concentration (IC50) in test [1] and in test [2] were 29 µM and 41 µM, respectively. For the same compound, the “BChE % Inhibition (Mean±SEM)” value in test [4] (15.62 µg/mL) was 77.93±0.78 %; in test [4] (31.25 µg/mL) it was 79.31±0.67%; in test [4] (62.5 µg/mL), 80.72±0.58%; in test [4] (125 µg/mL), 81.64±1.04 %; in test [4] (250 µg/mL), 83.54±0.74%; in test [4] (500 µg/mL), 84.13±0.45 %. In test [4] (1,000 µg/mL), the “BChE % Inhibition (Mean±SEM)” value amounted to 85.17±0.87 %. In test [2], the “ABTS scavenging IC50” value is given as 29 µg/mL. Besides, the “ABTS radical % Inhibition (Mean±SEM)” value in test [2] (15.62 µg/mL) is 65.39±0.89%; in test [2] (31.25 µg/mL), 70.28±0.36 %; in test [2] (62.5 µg/mL), 73.62±0.29%; in test [2] (125 µg/mL), 77.45±0.87 %; in test [2] (250 µg/mL), 78.36±0.58%; in test [2] (500 µg/mL) it was 79.27±0.64 %. The “ABTS radical % Inhibition (Mean±SEM)” value in test [2] (1,000 µg/mL) is on record as 81.35±0.35%.
